The results in this text go back to the METLIN SMRT retention time set (Domingo-Almenara et al. 2019).

This series is described as follows: gradient 5% acetonitrile 3 min, to 50% in 2 min, to 85% in 15 min, held 3 min, 100 µL/min. Conditions: column: Zorbax Extend-C18 2.1 x 50 mm; eluents: water / acetonitrile, 0.1% formic acid. The method in brief: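 Standards, all pure, were combined into mixtures of ~100 molecules and run at 100 μL/min on a Zorbax Extend-C18 column (2.1 × 50 mm, 1.8 μm) with water and acetonitrile, each containing 0.1% formic acid. A coupled quadrupole time-of-flight mass spectrometer operated in positive and negative ionization mode. Retention time values come from computationally picked adduct peaks, each inspected manually.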
Take `O=C1CCN(C(=O)C2CCN(C(=O)c3ccoc3)CC2)CCCCCCN1`: the RP-LC retention time is 612 s.

For `CCN1c2ccc(F)cc2C(=O)NC12CCN(C(=O)c1cccc(C)c1)CC2`, the RP-LC retention time was found to be 827 s. The value for `COc1ccccc1CC(=O)N1CCCC1c1cc(C(C)C)on1` (stereo not drawn) was 902 s; that for `CC(=O)Nc1c(C)nn(-c2ccccc2)c1N1CCC(C(=O)Nc2cccc(C(C)=O)c2)CC1` was 709 s. The value for `Cc1cc(NC(=O)C2CCCN(S(=O)(=O)c3cc(-c4noc(C5CCCC5)n4)cs3)C2)no1` (stereo not drawn) was 1110 s; that for `Cn1nccc1-c1cccc(-c2noc(-c3ccoc3)n2)c1` was 938 s; that for `Cc1ccc(C)c(C(O)Cn2ccn3nc(-c4cccs4)cc3c2=O)c1` (stereo not drawn) was 915 s. `C=CCNC(=O)C1CCCN(S(=O)(=O)c2cc(OC)ccc2OC)C1` (stereo not drawn) gave an RP-LC retention time of 723 s.

Consider `COC(=O)c1cccc(NC(=O)C2CCN(c3cc(N4CCCC4)ncn3)CC2)c1`, for which the RP-LC retention time came out at 658 s. The value for `Cc1noc([C@@H]2CN(C(=O)CCc3nc4ccccc4s3)C[C@H]2C(N)=O)n1` was 650 s. For the compound `O=C(c1cc2ccccc2[nH]1)N1CCCn2nc(-c3cccs3)cc2C1`, the RP-LC retention time came out at 899 s.

Consider `COc1ccc(Nc2nc(-c3nnn(-c4cc(F)ccc4F)c3C)ns2)cc1`, for which the RP-LC retention time amounted to 949 s. The value for `O=C(Cn1nc2nc(N3CCCCCC3)ccn2c1=O)Nc1cc(F)cc(F)c1` was 798 s; that for `COc1ccc(OC)c(-c2cn3ccn(-c4ccc(C)c(Cl)c4)c(=O)c3n2)c1` was 982 s; that for `Cc1cccc(S(=O)(=O)NCc2c(-c3ccccc3)nc3sc(C)nn23)c1` was 802 s. `COC(=O)c1cccc(NC(=O)NCCCn2c(C(F)(F)F)nc3cccnc32)c1` gave an RP-LC retention time of 773 s. The result for `CC(C)c1noc(-c2cc(=O)n(CC(=O)Nc3ccccc3Cl)c3ccccc23)n1` reads 1050 s.

In turn, `Cc1cccc(C(=O)Nc2c(C(=O)N3CCN(c4ccccn4)CC3)[nH]c3ccccc23)c1` displayed an RP-LC retention time of 613 s. The result for `CCN1CCN(C(=O)CN2C(=O)CCCc3cc(S(=O)(=O)N4CCC(C)CC4)ccc32)CC1` reads 643 s; that for `CC(C)n1c(=O)sc2cc(S(=O)(=O)N3CCC(C(=O)NCc4ccccc4)CC3)ccc21`, 932 s. `CCOC(=O)CNC(=O)N1CC(CC)Oc2ccc(C)cc21` (stereo not drawn) yielded an RP-LC retention time of 935 s. The result for `COc1cc(Br)c(CC2C(=O)Nc3ccccc32)cc1OC` (stereo not drawn) reads 842 s; that for `Cc1cc(C)c2sc(N(Cc3cccnc3)C(=O)c3snnc3C)nc2c1`, 823 s.

On to `O=C(c1ccc(F)c(F)c1)N1CCCN(c2cc(-c3ccc4c(c3)OCO4)[nH]n2)CC1`, for which the RP-LC retention time came out at 703 s. In the case of `CCCCOc1ccc(C(=O)Nc2ccc(-c3cn4ccc(C)nc4n3)cc2)cc1`, the RP-LC retention time was 781 s. The value for `Cc1cc(NC(=O)C2CCCN(c3nc4ccsc4c(=O)n3Cc3ccc(F)cc3)C2)ccc1F` (stereo not drawn) was 1050 s; that for `O=C(/C=C/c1ccc(O)c(O)c1)c1ccc(O[C@@H]2O[C@H](CO)[C@@H](O)[C@H](O)[C@H]2O)c(O)c1O` was 641 s; that for `Cc1ccccc1CNC(=O)C1(C)CCCN(C(=O)Nc2ccccc2C)C1` (stereo not drawn) was 959 s. The value for `COc1cccc(-c2noc(Cc3nnc(-c4cccc(F)c4)o3)n2)c1OC` was 934 s. The value for `CC1CCN(S(=O)(=O)c2ccc(-c3nnc(C(=O)NCc4ccc(F)cc4)o3)cc2)CC1` was 1040 s. Compound `COc1ccc(N2CCN(S(=O)(=O)c3cc(-c4csc(C)n4)sc3C)CC2)cc1` gave an RP-LC retention time of 1090 s. The value for `COc1ccc(-n2ccc(=O)c(-c3nc(-c4ccccc4OC)no3)n2)cc1` was 776 s; that for `COc1ccc2nc(-c3ccc(Cl)cc3)cc(C(=O)O)c2c1` was 1090 s.

`O=C(O)c1nnn(-c2ccc3c(c2)OCO3)c1-c1cccnc1` displayed an RP-LC retention time of 602 s. `CCNC(=O)c1cc(C)nc2c(C)cccc12` yielded an RP-LC retention time of 568 s. In turn, `COc1cc(C)c(C)cc1S(=O)(=O)NCC1CCN(c2ncccn2)CC1` displayed an RP-LC retention time of 806 s. For the compound `Cc1cc(=O)n(CC(=O)NC(C)C)c(N2CCc3ccccc3C2)n1`, the RP-LC retention time was determined as 665 s.

`CC1CCN(C(=O)c2cc3c(s2)CCC(C(=O)NCc2ccccn2)C3)CC1` (stereo not drawn) showed an RP-LC retention time of 668 s. In turn, `CC(C)NC(C)Cc1ccc(I)cc1` (stereo not drawn) came in with an RP-LC retention time of 746 s. As for `Cc1ccc2c(Nc3ccc(F)c(F)c3)c(C(=O)N3CCCC3)cnc2n1`, the RP-LC retention time is 680 s.

Consider `C=CCn1c(=O)c2ccccc2n(Cc2nc(-c3ccc(F)c(Br)c3)no2)c1=O`, for which the RP-LC retention time is 1170 s. In turn, `O=C(Nc1nccnc1C(=O)NC1CCCC1)c1ccccc1` registered an RP-LC retention time of 934 s. The result for `Cc1cc(C)c(S(=O)(=O)N2CCC(C(=O)NCCc3csc(-c4ccccc4)n3)CC2)c(C)c1` reads 1070 s; that for `Cc1nc(-c2ccc(F)cc2)sc1C(=O)N1CCC(C(C)C(=O)NC2CC2)CC1` (stereo not drawn), 747 s; that for `CCSc1nc2ccc(NS(=O)(=O)Cc3cc(F)cc(F)c3)cc2s1`, 1020 s. In the case of `O=C(NC1CCc2nn(CC3CC3)c(=O)n2CC1)c1cc(C2CC2)[nH]n1` (stereo not drawn), the RP-LC retention time is 627 s.

Take `CCc1noc(NC(C)=O)c1-c1ccc(C)c(S(=O)(=O)N(C)c2ccc(C)cc2)c1`: the RP-LC retention time was 861 s. The value for `C/C=C1\NC(=O)[C@H]2CSSCC/C=C/[C@H](CC(=O)N[C@H](C(C)C)C(=O)N2)OC(=O)C(C(C)C)NC1=O` (stereo partly drawn) was 808 s; that for `CCOC(=O)CNC(=O)N1CCCC1c1ccc(F)cc1` (stereo not drawn) was 760 s; that for `CC1CCCN(c2nn(CC(=O)Nc3cccc(C(C)C)c3)c(=O)c3ccccc23)C1` (stereo not drawn) was 1300 s. For `COCCCNC(=O)C1CCN(c2nnc(-c3ccccc3)o2)CC1`, the RP-LC retention time is 659 s. The value for `Cc1cc(-c2nnc(NC(=O)NCc3ccc(Cl)cc3)o2)c(C)o1` was 853 s; that for `Cc1ccc(-c2cc3n(n2)CCCN(C(=O)c2ccncc2)C3)cc1` was 689 s. As for `COc1ccc(S(=O)(=O)CCc2noc(C(=O)N3CCC4(CC3)OCCO4)n2)cc1`, the RP-LC retention time was 763 s. The compound `CN(C)S(=O)(=O)c1ccc(-c2nnc(C(=O)NCc3ccncc3)o2)cc1` returned an RP-LC retention time of 604 s. With `COc1cccc(CNC(=O)C2(C)CCCN(C(=O)Nc3cccc(Cl)c3C)C2)c1` (stereo not drawn), the RP-LC retention time came out at 982 s. The result for `CCOC(=O)Cc1csc(NC(=O)c2cc3cc([N+](=O)[O-])ccc3s2)n1` reads 925 s.

The compound `Cc1ccc(-c2nnc(CC(=O)NCCc3ccc(Cl)cc3)o2)cc1` had an RP-LC retention time of 906 s.
